Assay results taken from patent US9611223B2, “3-aryl-5-substituted-isoquinolin-1-one compounds and their therapeutic use” (INSTITUTE OF CANCER RESEARCH: ROYAL CANCER HOSPITAL (THE), priority 2013, dated 2017).
Where “and” joins values, the source holds several entries; their conditions need not be identical. Equal values may be shown once. Read-outs that look alike come from different tables or passages of the source.

Columns and labels:
[1] = target: T1, TNKS1 (Homo sapiens, UniProt O95271, M1266I); assay: TNKS1/PARP Biochemical Assay
T1 construct: expresses the active PARP domain of TNKS1 as a polyhistidine tagged protein; made in house; host or cells: E. coli Rosetta2(DE3)
Procedure: TNKS1/PARP Biochemical Assay
Tankyrase activity was assayed using a 96-well format HT Universal Chemiluminescent PARP Assay Kit (Trevigen, Inc, cat. no. 4676-096-K) according to the manufacturer's instructions. In short, tankyrase/PARP activity is quantified by the incorporation of biotinylated nicotinamide adenine dinucleotide (biotin-NAD^+) onto the immobilised pseudo substrate, Histone. The extent of poly(Biotin-ADP)ribosylation (PARylation) in the presence of increasing dose of inhibitor is then quantified by binding of streptavidin conjugated horse radish peroxidase (strep-HRP) followed by chemiluminescent detection.
Prior to assay initiation, inhibitor stocks were prepared in aqueous DMSO (10% (v/v)) from 5 millimolar (mM) stock in 100% DMSO (Sigma Aldrich, cat. no. 265855) as 10× concentrations. For the primary assay (i.e., single dose at 1 micromolar (μM) final concentration) this corresponded to 10 μM in 10% DMSO. For IC50 determination, this corresponded to 100 μM, 30 μM, 10 μM, 3.0 μM, 1.0 μM, 0.30 μM, 0.10 μM and 0 μM in 10% DMSO for final concentrations of 10 μM, 3.0 μM, 1.0 μM, 0.30 μM, 0.10 μM, 0.030 μM, 0.010 μM, and 0 μM with 1% (v/v) final DMSO. The assay was initiated by the addition of 10× inhibitor (5 microliters (μL)) or 10% aqueous DMSO (5 μL) to triplicate wells. Twenty microliters of diluted TNKS1 protein (200 nanomolar (nM) final conc.) in PARP buffer (Trevigen, Inc, cat. no. 4671-096-02) was added to each histone coated well, which was previously hydrated with PARP buffer. Triplicate wells with 1% DMSO/buffer alone (no enzyme) were also added as a measure of assay ‘noise’. Positive control for PARP inhibition included the addition of 4-amino-1,8-naphthalimide (Sigma Aldrich, cat. no A0966) in corresponding doses.
The mixture was incubated for 10 minutes at room temperature and the PARylation reaction initiated by the addition of PARP cocktail (25 μL, Trevigen, Inc) containing biotin-NAD^+ (Trevigen, Inc, cat. no. 4670-500-01), activated DNA (Trevigen, Inc, cat. no. 4671-096-06) and PARP buffer. The reaction was incubated for 1.5 hours (for TNKS1) or 1 hour (for PARP1) at room temperature. The reaction mixture was then removed by aspiration and the wells washed (3×200 μL) with phosphate buffered saline containing Triton X-100 (0.1% (v/v), Sigma Aldrich cat. no. T8787). The wells were then washed (3×200 μL) with phosphate buffered saline and then incubated with strep-HRP (50 μL, Trevigen, Inc, cat. no. 4800-30-06) in strep-diluent (1:500 dilution, Trevigen Inc, cat. no. 4671-096-04) for 1 hour at room temperature. The Strep-HRP mixture was then aspirated and the wells washed (3×200 μL) with phosphate buffered saline containing Triton X-100 (0.1% (v/v)) followed by phosphate buffered saline (3×200 μL) and then incubated with PeroxyGlow™ reagent (100 μL, Trevigen, Inc, cat. nos. 4675-096-01, 4675-096-02, room temperature, mixed 1:1).
The amount of light emitted as a result of the peroxidase-chemiluminescent reagent reaction was in proportion to the extent of poly(Biotin-ADP)ribosylation and was immediately measured with a Victor^2 plate reader (Perkin Elmer, luminescence detection assay, luminescent units described as ‘Counts Per Second’ (CPS)). The data were normalised to the DMSO control after subtraction of ‘noise’ and was expressed as % PARP activity as a function of inhibitor dose. Inhibition was expressed as 100%−(% PARP activity). Dose response curves used to determine IC50 values were Log transformed and analysed by non-linear regression analysis (variable slope) using Prism (GraphPad Software, Inc) and were presented as IC50 with 95% confidence interval to determine relative potency.
Tankyrase1 (pNIC-Bsa4-TNKS1^PARP) expression construct was obtained from the Structural Genomics Consortium (SGC) and expresses the active PARP domain of TNKS1 as a polyhistidine tagged protein. […]

[2] = test system: COLO320DM cells; assay: Tumour Cell Inhibition Assay (COLO320DM cells); type: cell-based; conditions: Homo sapiens, COLO 320DM, 120 h, five day exposure
Procedure: Tumour Cell Inhibition in Colorectal Tumour Cells
In order to determine the efficacy of acute dosing of putative TNKS inhibitors, five day exposure cell viability assays were carried out. This included the sparse seeding of cells in a 96-well plate followed by continuous dosing of cells over a five day period.
Appropriate cell lines (HT55, COLO320DM and SW620) were seeded at 500 cells/well in a 96-well plate in MEM (HT55), RPMI (COLO320DM) or DMEM (SW620) supplemented with FBS. After overnight incubation, cells were treated with the appropriate putative TNKS inhibitor in 6 or 10 concentrations ranging from 0 μM to 10 μM at 0.2% final DMSO concentration in appropriate media supplemented with 10% or 0.5% FBS. Dosages were carried out in triplicate. Termination of the assay and measurement of cell viability was achieved by the use of Cell Titre Glo reagent and luminescence measurement on an appropriate plate reader.
Dose response curves used to determine SF50 values were Log transformed and analysed by non-linear regression analysis (variable slope) using Prism (GraphPad Software, Inc).

[3] = read-out: cell inhibitory SF50 (COLO320DM)

T1 sequence (O95271 1112-1317 M1266I): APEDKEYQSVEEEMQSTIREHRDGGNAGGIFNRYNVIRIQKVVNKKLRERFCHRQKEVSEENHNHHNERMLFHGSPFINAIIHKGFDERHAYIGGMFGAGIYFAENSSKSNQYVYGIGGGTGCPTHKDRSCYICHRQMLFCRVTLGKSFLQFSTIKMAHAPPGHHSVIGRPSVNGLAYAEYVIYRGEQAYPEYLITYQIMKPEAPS

SMILES	IC50 [1]	IC50 [2, 3]	IC50 ([2]; replicate, read-out: cell inhibitory SF50 (COLO320DM), replicate)
N#Cc1cccc2c(=O)[nH]c(-c3ccc(CN)cc3)cc12 [IQ-043]	< 100 nM		
Cc1nnc(N2CCN(Cc3ccc(-c4cc5c(C#N)cccc5c(=O)[nH]4)cc3)CC2(C)C)o1 [IQ-058]	< 100 nM		
COCc1ccn(Cc2ccc(-c3cc4c(C#N)cccc4c(=O)[nH]3)cc2)n1 [IQ-033]	< 50 nM	< 5000 nM	
CC(C)(C)OC(=O)N1CCN(c2ccc(-c3cc4c(C#N)cccc4c(=O)[nH]3)cn2)CC1 [IQ-051]		< 5000 nM	
Cc1nnc(N2CCN(Cc3ccc(-c4cc5c(C#N)cccc5c(=O)[nH]4)cc3)CC2C)o1 (centres unmarked) [IQ-056]	< 50 nM	< 5000 nM	
CC(C)(C)OC(=O)N1CCN(Cc2ccc(-c3cc4c(C#N)cccc4c(=O)[nH]3)cc2)CC1 [IQ-046]		< 5000 nM	
Cc1nnc(N2CCN(Cc3ccc(-c4cc5c(C#N)cccc5c(=O)[nH]4)cc3)C(C)C2)o1 (centres unmarked) [IQ-040]	< 100 nM	< 5000 nM	
Cc1nnc(N2CCN(C(C)c3ccc(-c4cc5c(C#N)cccc5c(=O)[nH]4)cc3)CC2)o1 (centres unmarked) [IQ-032]	< 50 nM		
Cc1nccn1Cc1ccc(-c2cc3c(C#N)cccc3c(=O)[nH]2)cc1 [IQ-013]	< 100 nM and < 50 nM and 18 nM		1120 nM
Cc1nnc(N2CCCN(c3ccc(-c4cc5c(C#N)cccc5c(=O)[nH]4)cc3)CC2)o1 [IQ-059, 3-{4-[4-(5-Methyl-[1,3,4]oxadiazol-2-yl)-[1,4]diazepan-1-yl]-phenyl}-1-oxo-1,2-dihydro-isoquinoline-5-carbonitrile]	< 50 nM	< 5000 nM	
CC(c1ccc(-c2cc3c(C#N)cccc3c(=O)[nH]2)cc1)N1CC(O)C1 (centres unmarked) [IQ-009, 3-{4-[1-(3-Hydroxy-azetidin-1-yl)-ethyl]-phenyl}-1-oxo-1,2-dihydro-isoquinoline-5-carbonitrile]	< 50 nM		
N#Cc1cccc2c(=O)[nH]c(-c3ccc(C(=O)N(CCO)CCO)cc3)cc12 [IQ-010, 4-(5-Cyano-1-oxo-1,2-dihydro-isoquinolin-3-yl)-N,N-bis-(2-hydroxy-ethyl)-benzamide]	< 50 nM		
Cc1nnc(N(C)C2CN(Cc3ccc(-c4cc5c(C#N)cccc5c(=O)[nH]4)cc3)C2)o1 [IQ-047]	< 50 nM	< 5000 nM	
CN(C(=O)c1ccc(-c2cc3c(C#N)cccc3c(=O)[nH]2)cc1)C1CCN(CC2CC2)CC1 [IQ-006]	< 50 nM	< 5000 nM	
COCc1nccn1C(C)c1ccc(-c2cc3c(C#N)cccc3c(=O)[nH]2)cc1 (centres unmarked) [IQ-028]	< 50 nM	< 5000 nM	
COCc1nccn1Cc1ccc(-c2cc3c(CN)cccc3c(=O)[nH]2)cc1 [IQ-023, 5-Aminomethyl-3-[4-(2-methoxymethyl-imidazol-1-ylmethyl)-phenyl]-2H-isoquinolin-1-one]	< 50 nM		
CC(C)c1nnc(N2CCN(Cc3ccc(-c4cc5c(C#N)cccc5c(=O)[nH]4)cc3)CC2)o1 [IQ-019]	< 50 nM		
CN(C)Cc1cccc2c(=O)[nH]c(-c3ccc(CN4CCN(C)CC4)cc3)cc12 [IQ-024, 5-Dimethylaminomethyl-3-[4-(4-methyl-piperazin-1-ylmethyl)-phenyl]-2H-isoquinolin-1-one]		< 5000 nM	
COCCN(CCOC)C(=O)c1ccc(-c2cc3c(C#N)cccc3c(=O)[nH]2)cc1 [IQ-008]	< 100 nM		
Cc1nnc(N2CCN(Cc3ccc(-c4cc5c(C#N)cccc5c(=O)[nH]4)cc3)C(C)(C)C2)o1 [IQ-057]	< 50 nM	< 5000 nM	
CC(c1ccc(-c2cc3c(C#N)cccc3c(=O)[nH]2)cc1)n1ccnc1 (centres unmarked) [IQ-029]	< 50 nM		
COCc1nccn1Cc1ccc(-c2cc3c(C#N)cccc3c(=O)[nH]2)cc1 [IQ-017]	< 50 nM		
COCc1ccnn1Cc1ccc(-c2cc3c(C#N)cccc3c(=O)[nH]2)cc1 [IQ-031]	< 100 nM		
Cc1nnc(N(C)Cc2ccc(-c3cc4c(C#N)cccc4c(=O)[nH]3)cc2)o1 [IQ-042]	< 50 nM	< 5000 nM	

Continued, values first:

IC50 [1]	IC50 [2, 3]	IC50 ([2]; replicate, read-out: cell inhibitory SF50 (COLO320DM), replicate)	SMILES
< 50 nM	< 5000 nM		CC(c1ccc(-c2cc3c(C#N)cccc3c(=O)[nH]2)cc1)n1ccnc1CO (centres unmarked) [IQ-038]
< 50 nM	< 5000 nM		Cc1nnc(N2CCCN(Cc3ccc(-c4cc5c(C#N)cccc5c(=O)[nH]4)cc3)CC2)o1 [IQ-049]
< 50 nM			Cc1nnc(N2CCN(c3ccc(-c4cc5c(C#N)cccc5c(=O)[nH]4)cc3)CC2)o1 [IQ-055, 3-{4-[4-(5-Methyl-[1,3,4]oxadiazol-2-yl)piperazin-1-yl]phenyl}-1-oxo-1,2-dihydroisoquinoline-5-carbonitrile]
< 50 nM	< 5000 nM		Cc1nnc(N2CCN(Cc3ccc(-c4cc5c(C#N)cccc5c(=O)[nH]4)cc3)CC2)o1 [IQ-020]
< 50 nM	< 5000 nM		CN(C)Cc1nccn1Cc1ccc(-c2cc3c(C#N)cccc3c(=O)[nH]2)cc1 [IQ-016]
< 50 nM	< 5000 nM		Cc1nnc(N2CCN(Cc3ccc(-c4cc5c(C#N)cc(F)cc5c(=O)[nH]4)cc3)CC2)o1 [IQ-039]
< 50 nM			CCc1nnc(N2CCN(Cc3ccc(-c4cc5c(C#N)cccc5c(=O)[nH]4)cc3)CC2)o1 [IQ-044]
< 50 nM			CC(c1ccc(-c2cc3c(C#N)cccc3c(=O)[nH]2)cn1)n1ccnc1 (centres unmarked) [IQ-034]
< 50 nM	< 5000 nM		N#Cc1cccc2c(=O)[nH]c(-c3ccc(Cn4ccnn4)cc3)cc12 [IQ-030]
< 50 nM			Cc1nnc(N2CCN(Cc3ccc(-c4cc5c(CN)cccc5c(=O)[nH]4)cc3)CC2)o1 [IQ-022]
